Results published in PubChem BioAssay AID449764 (Southern Research Specialized Biocontainment Screening …, 2010).

Tested on: Mycobacterium tuberculosis H37Rv growth inhibition, no glycerol
Assay: Mycobacterium tuberculosis H37Rv growth inhibition, no glycerol, confirmatory dose response (AID 449764);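 also: growth read after 7 days of incubation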
Details: for IC90: measured here: IC90 growth inhibition

Structure (SMILES)	IC50 [µM]	IC90 [µM]
Cc1ccc(NC(=O)COC(=O)CCc2c[nH]c3ccccc23)cc1[N+](=O)[O-]	2.29	6.16
O=C1C(Br)=Cc2cccc3cccc1c23	< 0.2	< 0.2
Cc1ccc(-c2noc(-c3cc4ccccc4oc3=O)n2)cc1	11.4	> 100
CC1Cc2ccccc2N1C(=S)NC(=O)c1ccc(Cl)cc1Cl (stereo not drawn)	17	> 100
Cc1cc(C)n2nc(N)c(N=Nc3ccccc3)c2n1	2.59	3.46
C=CCOc1ccccc1CN(C(=O)CCl)c1ccc2c(c1)OCO2	2.7	3.72
O=C(Oc1ccc2ccccc2c1)c1cncc(Br)c1	55.3	> 100
CCC1C(c2ccccc2)N(C)C(c2ccccc2)CC1(O)c1ccccc1 (stereo not drawn)	23.9	27.6
O=Nc1c2nc3ccccc3n(O)c-2c2ccccc12	12.2	13.7
CCc1cccc2c(=O)c(C(=O)N3CCOCC3)c[nH]c12	15.3	22.9
Cc1ccc(OCCN2CCN(c3ncnc4sc(C)c(C)c34)CC2)cc1	53.5	79.3
CN(C)c1ccc(CNc2nc(-c3ccccc3)nn2S(C)(=O)=O)cc1	14.2	26.5
COc1ccc(CN(CCC(c2ccccc2)c2ccc(OC(C)C)cc2)C(=O)CCl)cc1OC (stereo not drawn)	15.8	23.5
O=C(c1ccc(Br)cc1)C(CN1CCOCC1)c1ccccc1 (stereo not drawn)	12	13.8
COc1cc(C)c(/C=C/C(C)=C/C=C/C(C)=C/C(=O)O)c(C)c1C	24.7	43.5
O=C([O-])c1ccccc1-[n+]1c(-c2ccccc2)cc(-c2ccccc2)cc1-c1ccccc1	22	24.5
NC(=O)CSc1nnc(COc2ccc3ccccc3c2)o1	20.8	27.3
S=C(NN=C1CCN(Cc2ccccc2)CC1)NC1CCCCC1	43.6	47
COc1cc(OC)cc(-c2cc3nc(C)c(CCC(=O)NC(C)CCc4ccco4)c(C)n3n2)c1 (stereo not drawn)	53.2	90.5
CC1(C)c2cc(Cl)ccc2-n2c1cc(O)c(-c1ccccc1)c2=O	8.61	18.1
CCOc1cc(C=O)cc(N=Nc2cccc([N+](=O)[O-])c2)c1O	8.41	13.5
Cc1ccc2nc(-c3cccc(Br)c3)cc(C(=O)NC3=NCCS3)c2c1	27.8	43.2

Structure (SMILES)	IC50 [µM]	IC90 [µM]
C/C(=N\NC(=O)c1cc2ccccc2cc1O)c1ccc(C)o1	10.5	18.7
O=C(CSc1nc2ccccc2nc1N1CCOCC1)N1CCN(c2ccccc2)CC1	11.8	14
COc1cc(NC(=O)c2ccc(COc3ccccc3Br)o2)cc(OC)c1OC	67	> 100
CN(c1ccccc1)c1ccc(/C=C/[N+](=O)[O-])cc1	15	28
COc1ccccc1NC(=O)CN1CCN(CC(=O)Nc2ccc3c(c2)OCO3)CC1	39.2	60
CC1CCCC(C)N1/N=C/c1c[nH]c2ccc(Br)cc12 (stereo not drawn)	22.7	29.1
COc1ccc(C[C@H](N)C(=O)N[C@H]2[C@@H](O)[C@H](n3cnc4c(N(C)C)ncnc43)O[C@@H]2CO)cc1	3.95	5.82
Cc1cc(C)n(C(=O)c2ccc([N+](=O)[O-])cc2[N+](=O)[O-])n1	8.89	12.3
O=C1C2C(C(=O)N1/N=C/c1ccc([N+](=O)[O-])o1)C1C=CC2C12CC2 (stereo not drawn)	32.3	52.8
COc1ccc(-c2nnn(CC(=O)OC3CCCCC3)n2)cc1OC	20.6	> 100
CCc1ccc(N=C2NC(=O)/C(=C/c3cc(OC)c(O)c(OC)c3)S2)cc1	41.1	> 100
COc1cc(/C=C2\C(=O)N(c3ccc(S(N)(=O)=O)cc3)N=C2C)ccc1OC(=O)c1ccco1	22.6	26.1
COc1ccc(C(=O)COC(=O)[C@H](C)Nc2ccc(C(F)(F)F)cc2[N+](=O)[O-])cc1	18.1	> 25
COc1ccc(COC(=O)CCNC(=O)c2ccc(Cl)cc2)cc1	71.1	> 100
CN1C(=O)/C(=C/c2cccc(Cl)c2)Sc2ccc(C(=O)N3CCCC3)cc21	20.6	49.9
Cc1ccn2c(NC3CCCCC3)c(-c3cccc(-c4cccc(Cl)c4)c3)nc2c1	26.4	36.3
CCOC(=O)c1cnc(Nc2nc3ccccc3o2)nc1CSC(=S)N(CC)CC	49.3	56.6
Cc1ccc(-c2noc(C3CCCN(C(=O)c4ccc(C(C)(C)C)cc4)C3)n2)o1 (stereo not drawn)	53.9	82.6
CCOc1ccc(-n2cc(-c3ccccc3)c3c(=O)[nH]cnc32)cc1	84	> 100
CCCCCCc1cc2cc(C(=O)NCc3ccccc3)c(=N)oc2cc1O	5.67	6.45
CC1CC(C)(C)Nc2ccc(OC(=O)c3ccco3)cc21 (stereo not drawn)	21.7	29.5
Cc1[nH]c2ccccc2c1/C=N/Nc1nc(Nc2ccccc2)nc(N2CCOCC2)n1	6.68	13.6

Structure (SMILES)	IC50 [µM]	IC90 [µM]
C1=C(c2c[nH]c3ccccc23)CCNC1	56.5	73.9
CCn1nc(NC(=O)c2ccncc2)c2cc3cc(C)ccc3nc21	4.7	> 100
Clc1ccc(CCC(Cn2ccnc2)Sc2c(Cl)cccc2Cl)cc1 (stereo not drawn)	11.8	13.3
CCOc1ccc(OCCSc2ccc(S(=O)(=O)N3CCN(C)CC3)cn2)cc1	25.5	28.8
COC(=O)c1c(NC(=O)CC2SC(N)=NC2=O)sc2c1CCC(C(C)(C)C)C2 (stereo not drawn)	40.2	64.4
COCCOC(=O)c1ccc(NC(=O)COc2ccc([N+](=O)[O-])cc2)cc1		> 100
COc1ccc(C(CC(=O)c2ccccc2)S(=O)(=O)c2ccc(C)cc2)cc1 (stereo not drawn)	56.3	92.2
Cc1cc2c(cc1C)/C(=N/NC(=O)c1ccccn1)CCC2	24.2	53.6
CC(C)OC(=O)c1ccc(NC(=S)NC(=O)c2cncc(Br)c2)cc1		> 100
O=C(C/C=N\OCc1ccc([N+](=O)[O-])cc1)Nc1ccc(F)cc1F	82.9	> 100
CC(C)(C)NC(=O)C(=O)NNC(=O)c1ccc(C(C)(C)C)cc1	14.4	> 100
CNC(=S)/N=C/NOCc1c(Cl)cccc1Cl	2.96	3.35
CCCCC(=O)OCC(=O)N1N=C(c2c[nH]c3ccccc23)C(O)C1c1ccc(OC)cc1 (stereo not drawn)	22	25.1
CCCCCOc1ccc(NC2=CC(=O)CCC2)cc1	77.8	99
Cc1cccc(-c2oc3ccc(-c4ccc5c(c4)OCO5)cc3c2C#Cc2cncn2C)c1	2.86	3.23
Cc1nn(-c2ccccc2)c(C)c1/C=N/NC(=O)c1cc(-c2cccc3ccccc23)n[nH]1	48.3	> 100
CCOC(=O)COc1ccc(S(=O)(=O)NCCC2=CCCCC2)cc1	22.7	25.9
O=c1[nH]c2ccccc2c2oc(CCl)nc12	7.37	22.1
O=C(NNC(=O)C12CC3CC(CC(C3)C1)C2)c1ccccn1	21.8	24.4
CC[C@H](C)[C@@H]1O[C@@]2(C=CC1C)CC1C[C@@H](CC=C(C)C(O[C@H]3CC(OC)C(O[C@H]4CC(OC)C(O)C(C)O4)C(C)O3)C(C)C=CC=C3CO[C@@H]4C(O)C(C)=C[C@@H](C(=O)O1)[C@]34O)O2 (stereo partly drawn)	16.5	27.3
COc1c[nH]n(C2CCCCC2)c(=O)c1=O	24.1	27.6
CCc1ccc2[nH]c(=O)c(CN(CCCN3CCOCC3)C(=O)Nc3cccc(Cl)c3)cc2c1	33.7	40.5

Structure (SMILES)	IC50 [µM]	IC90 [µM]
C=CCNC(=S)N/N=C(\C)c1ccccn1	23.4	45.5
O=C(Nc1ccc(OCC(F)(F)C(F)F)c(C(F)(F)F)c1)c1ccc(Cl)cc1	33.2	46.9
Oc1cc(NCc2cccnc2)ccc1-c1nc2ccccc2o1	31.6	61.3
C[C@]12CC[C@@H]3c4ccc(O)cc4CC[C@H]3[C@@H]1CC[C@@H]2OC(=O)CCC1CCCC1	14.5	35.3
O=C(N/N=C\C=C\c1ccc([N+](=O)[O-])o1)c1cccs1	10.8	15.1
C=CCN(CC(=O)c1sc(C(=O)OCC)nc1C)c1cccc(Br)c1	20.8	32.6
CC(C)Cc1nc2oc3c(N4CCN(CCO)CC4)ncnc3c2c2c1CCCC2	18.3	24.9
O=C(CCl)N1CCN2C(=O)c3ccccc3C12c1ccc(Cl)cc1 (stereo not drawn)	21.9	32.1
Cc1ccc(Cn2nnnc2CN2CCC(c3nc4ccc(Cl)cc4[nH]3)CC2)cc1	31	40.8
CN(C)CCOc1ccc(-c2c(-c3ccsc3)sc3ccccc23)cc1	15.4	21
COc1cc(/C=C(\C#N)c2nc3c(s2)CC(C)CC3)ccc1O (stereo not drawn)	45.5	51.4
CCOC(=O)Cc1csc(NC(=O)c2c(O)c3c(n(CC(C)C)c2=O)CCCC3)n1	18.5	36.7
CCOC(=O)CSc1nnc(-c2c[nH]c3ccccc23)o1	8.61	22.1
Cc1cc(/C=N\NC(=O)c2cccs2)c(C)n1-c1ccc2ncccc2c1	36.8	60.2
COC(=O)CCc1sc(Nc2ccc(Br)cc2)nc1-c1ccc(OC)cc1	40.9	> 100
Cc1ccnc(N2CCC(C(=O)Nc3cccc(C(F)(F)F)c3)CC2)n1	46.3	> 50
CNC(=O)COC(=O)c1ccc(-c2nc3ccccc3s2)s1	9.68	16.3
Fc1ccc(C[n+]2c(-c3ccccc3)cc(-c3ccccc3)cc2-c2ccccc2)cc1	32.8	43.9
CN1/C(=C\C(=O)C[n+]2ccc(C(=O)c3ccccc3)cc2)C(C)(C)c2ccccc21	13.3	21.1
Cn1cc(NC(=O)CCl)cn1	8.55	16.1
Oc1ccc2ccccc2c1C1Nc2cccc3cccc(c23)N1		> 100
N#Cc1c(SCC(N)=O)nsc1SCc1ccccc1Cl	45.8	> 100
